From a compilation of properties of binary mixtures (doi:10.1021/acs.jced.9b00769)

Assay: xn = mol fraction of the nth substance listed
Conditions: 100 kPa

CCCCCCCCCCCC[P+](CC)(CC)CC.N#Cc1ccc[n-]1 + OCCN(CCO)CCO
Conditions	electrical conductivity [S/m]	viscosity [mPa·s]
293.15 K, x1 = 0.003	0.0008	–
293.15 K, x1 = 0.005	0.0012	–
293.15 K, x1 = 0.007	0.0016	–
293.15 K, x1 = 0.008	0.0019	–
293.15 K, x1 = 0.013	0.0027	–
293.15 K, x1 = 0.017	0.0033	920
293.15 K, x1 = 0.02	0.0036	–
293.15 K, x1 = 0.025	0.0038	–
293.15 K, x1 = 0.042	0.0051	–
293.15 K, x1 = 0.051	0.0053	1009
293.15 K, x1 = 0.065	0.0056	–
293.15 K, x1 = 0.08	0.0058	–
293.15 K, x1 = 0.09	0.006	–
293.15 K, x1 = 0.091	–	1032
293.15 K, x1 = 0.116	0.0062	–
293.15 K, x1 = 0.117	–	1007
293.15 K, x1 = 0.145	–	920
293.15 K, x1 = 0.28	–	860
293.15 K, x1 = 0.285	0.0061	–
293.15 K, x1 = 0.404	0.0069	–
293.15 K, x1 = 0.512	0.0081	–
293.15 K, x1 = 0.687	–	840
293.15 K, x1 = 0.701	0.0141	–
293.15 K, x1 = 0.809	–	720
293.15 K, x1 = 1	0.0267	423
298.15 K, x1 = 0.017	–	608
298.15 K, x1 = 0.035	–	641
298.15 K, x1 = 0.091	–	680
298.15 K, x1 = 0.117	–	649
298.15 K, x1 = 0.145	–	610
298.15 K, x1 = 0.28	–	573
298.15 K, x1 = 0.473	–	583
298.15 K, x1 = 0.687	–	576
298.15 K, x1 = 1	–	310
303.15 K, x1 = 0.017	–	396
303.15 K, x1 = 0.051	–	418
303.15 K, x1 = 0.091	–	435
303.15 K, x1 = 0.117	–	423
303.15 K, x1 = 0.145	–	403
303.15 K, x1 = 0.207	–	389
303.15 K, x1 = 0.28	–	379
303.15 K, x1 = 0.473	–	395
303.15 K, x1 = 0.687	–	395
303.15 K, x1 = 0.809	–	353
303.15 K, x1 = 1	–	214
313.15 K, x1 = 0.017	–	181
313.15 K, x1 = 0.035	–	194
313.15 K, x1 = 0.091	–	198
313.15 K, x1 = 0.145	–	192
313.15 K, x1 = 0.28	–	183
313.15 K, x1 = 0.473	–	194
313.15 K, x1 = 0.687	–	199
313.15 K, x1 = 0.809	–	184
313.15 K, x1 = 1	–	114

CCCC[P+](CC)(CC)CC.N#Cc1ccc[n-]1 + OCCN(CCO)CCO
Conditions	electrical conductivity, 293.15 K [S/m]	viscosity, 293.15 K [mPa·s]	viscosity, 298.15 K [mPa·s]	viscosity, 303.15 K [mPa·s]	viscosity, 313.15 K [mPa·s]
x1 = 0.002	0.0007	–	–	–	–
x1 = 0.007	0.0017	–	–	–	–
x1 = 0.009	0.0022	–	–	–	–
x1 = 0.018	0.0036	960	–	410	188
x1 = 0.023	0.0041	–	–	–	–
x1 = 0.029	–	–	633	408	184
x1 = 0.047	0.0055	–	–	–	–
x1 = 0.059	0.0059	1010	660	426	191
x1 = 0.089	0.0068	970	636	410	185
x1 = 0.104	–	940	614	397	177
x1 = 0.123	0.0077	–	–	–	–
x1 = 0.223	–	–	530	–	155
x1 = 0.272	0.0115	–	–	–	–
x1 = 0.413	–	680	439	284	136
x1 = 0.508	–	647	426	–	132
x1 = 0.537	0.0248	–	–	–	–
x1 = 0.763	0.0489	478	318	210	106
x1 = 1	0.147	187	137	104	62

CCCCCCCCCCCC[P+](CCCC)(CCCC)CCCC.N#Cc1ccc[n-]1 + OCCN(CCO)CCO
Conditions	electrical conductivity [S/m]	viscosity [mPa·s]
293.15 K, x1 = 0.003	0.0006	–
293.15 K, x1 = 0.004	0.0008	–
293.15 K, x1 = 0.005	0.0011	–
293.15 K, x1 = 0.007	0.0014	–
293.15 K, x1 = 0.01	0.0019	–
293.15 K, x1 = 0.017	–	980
293.15 K, x1 = 0.022	0.003	–
293.15 K, x1 = 0.027	0.0032	–
293.15 K, x1 = 0.042	0.0036	–
293.15 K, x1 = 0.054	0.0038	1054
293.15 K, x1 = 0.075	0.0041	–
293.15 K, x1 = 0.177	0.0038	1025
293.15 K, x1 = 0.244	0.0039	970
293.15 K, x1 = 0.325	0.0041	930
293.15 K, x1 = 0.431	0.0043	830
293.15 K, x1 = 0.755	0.0057	680
298.15 K, x1 = 0.017	–	654
298.15 K, x1 = 0.054	–	680
298.15 K, x1 = 0.096	–	690
298.15 K, x1 = 0.121	–	690
298.15 K, x1 = 0.177	–	680
298.15 K, x1 = 0.244	–	646
298.15 K, x1 = 0.431	–	569
298.15 K, x1 = 0.538	–	532
303.15 K, x1 = 0.035	–	435
303.15 K, x1 = 0.096	–	452
303.15 K, x1 = 0.121	–	450
303.15 K, x1 = 0.177	–	450
303.15 K, x1 = 0.244	–	432
303.15 K, x1 = 0.431	–	391
303.15 K, x1 = 0.538	–	370
313.15 K, x1 = 0.017	–	205
313.15 K, x1 = 0.035	–	205
313.15 K, x1 = 0.054	–	208
313.15 K, x1 = 0.121	–	216
313.15 K, x1 = 0.177	–	219
313.15 K, x1 = 0.244	–	211
313.15 K, x1 = 0.431	–	200
313.15 K, x1 = 0.538	–	194
313.15 K, x1 = 0.755	–	182
313.15 K, x1 = 1	–	166

OCCN(CCO)CCO + CCCC[P+](CC)(CC)CC.N#Cc1ccc[n-]1
x2 = 0
Conditions	viscosity [mPa·s]
293.15 K	940
298.15 K	611
303.15 K	413
313.15 K	204

OCCN(CCO)CCO + CCCCCCCCCCCC[P+](CC)(CC)CC.N#Cc1ccc[n-]1
x2 = 0
Conditions	viscosity [mPa·s]
293.15 K	940
298.15 K	611
303.15 K	413
313.15 K	204
